Experimental data as given in US20240368150A1 (Hoffmann-La Roche Inc., priority 2021, published 2024).
Where two headings read alike, the source gives them in different places.

Tests used:
primary human T-cells [1] = test system: primary human T-cells
Description: As readouts for T-cell activation, IL2 secretion after 24 hours and proliferation after 5 days was measured. Increases in IL2 secretion and proliferation upon compound treatment were assessed as the % of the maximum of reference compound A1. […] As a counter screen and to make sure that no unwanted TCR-independent activation was triggered, PBS conditions were run for all compounds.
For coating of plates, PBS++ with PBS−− or PBS++ with CD3 antibody (concentration depending on donor and determined by CD3 titrations) was added 100 μl/well to Poly-D Lysine coated 96-well plates. Plates were sealed and incubated at room temperature for 3 hours on a table-top rocking platform. After incubation, plates were washed once with PBS−− and filled with 40 μl/well culture medium only. Compounds were then added (see next section) to medium only plates. After 3 hours of culturing the T-cells, cells were filtered through a cell strainer (Miltenyi Biotech, #130-041-407), counted again and concentration was adjusted to 1.25 Mio/ml.
Cells were then seeded 80 μl/well to the 40 μl/well including dispensed compounds according to plate layout. By adding cells, compounds were further diluted 1:3, and resulting in 100 k cells/120 μl/well. After 24 hours 40 μl of supernatant was collected carefully from the top while not disturbing the cells and transferred into a round bottom 96 well plate. Collected and frozen supernatant was used for detection of IL2 using the IL-2 Human ProQuantum Immunoassay Kit (Invitrogen) or using the Human IL-2 ELISA Kit (Thermo Fisher).
Compounds were added in a 5 or 6pt dose response with the Tecan D300e Digital Dispenser, all conditions 3 times more concentrated than the end-concentration, since cells are added afterwards (80 μl cells to 40 μl prepared medium with treatment). The DR was starting at 20 μM or 10 μM final top concentration and a dilution factor of 3.333. The positive control was the reference compound A1 that was added in a dose response as well, additionally to 3 wells of only 20 μM representing the positive stimulator control. All wells were normalized with DMSO to a final concentration of 0.6% (0.2% end-concentration).
The immunoassay is done following the manufacturer's manual (Invitrogen, #A35603). Additional information: For the immunoassay, MicroAmp™ EnduraPlate™ Optical 384-Well plates are used. Frozen supernatant is thawed and centrifuged for 5 minutes at 1000×g, both steps at 4° C. After centrifugation, required sample amount is taken from the top, and in a separate LightCycler V-bottom plate (working plate) diluted with assay dilution buffer, dilution factor depending on the PBS or CD3 condition but at least 1:3. IL-2 standard and blanks are prepared in the same V-bottom plate, standard with a range of 0.0128-5000 pg/ml (extended version). After preparation, 5 μl of sample dilutions or standard/blanks are transferred to the optical 384-well plate (assay plate) and the 10 μl reaction protocol is being followed. For measurement, the QuantStudio 12K Flex system is used.
ELISA is done following the manufacturer's manual (Thermo Fisher Scientific, #88-7025-88). Additional information: For the ELISA Nunc MaxiSorp 96 well plates are used. Frozen supernatant is thawed and centrifuged for 5 minutes at 1000×g, both steps at 4° C. After that, required sample amount is taken from the top, and in a separate V-bottom plate diluted with ELISA diluent, dilution factor depending on the PBS or CD3 condition. IL-2 standard and blanks are prepared in the same V-bottom plate. After preparation, 50 μl of sample dilutions and 100 μl of standard or blanks are transferred to the Nunc plates.
CD3 and PBS plates were analysed separately in Genedata Screener using Roche Normalization PCT_POS_CTRL with DMSO set as Neutral Control and 20 μM of the reference compound A1 set as Stimulator Control/100%.
For CD3 conditions EC50 and Emax of the fitted sigmoidal curve were reported.

primary human T-cells [2] = assay: Proliferation assay after 5 days (CellTiter-Glo, CD3 stimulation; PBS counter screen); assay type: cell-based; details: CD3 stimulation; for Emax / Emax proliferation (% activation): 5 days, normalized to reference compound A1 as stimulator control = 100%, DMSO neutral control; for Emax: read-out: Emax proliferation (% activation); for EC50: primary human T-cells, CellTiter-Glo after 5 days, EC50 of fitted sigmoidal curve, read-out: Tcell Proliferation CD3 EC50
Description: Compounds are then added (see next section) to medium only plates.
Cells are assessed for proliferation 5 days later by measuring […] using CellTiterGlo (Promega).
After 5 days, for detection of ATP which is directly proportional to the number of cells present per well, the CellTiter-Glo® 2.0 Reagent is used. After visual control for toxicity or precipitations of the tested compounds, the plates are equilibrated to room temperature for 45 minutes. CellTiter-Glo® 2.0 Reagent is equilibrated to room temperature as well. After equilibration, an equal amount of CellTiter-Glo reagent is added to the cells (80 μl/well) with an electronic multichannel pipette. Plates are placed on a rocking platform for 15 minutes at room temperature. After incubation, the bottom of the plates is sealed with backing tape. Luminescence is measured with PHERAstar FSX (interval time 0.5 sec, gain 3000, focal height 15 mm) and exported as CSV file for analysis in Genedata screener.
Compounds which activate unstimulated cells (see IL2 measurements) or compounds which negatively affected viability were flagged.

EC50 (primary human T-cells [1]) [µM] | Compound | Emax (primary human T-cells [2]; Homo sapiens, T-cell, 120 h) [%] | EC50 (primary human T-cells [2]) [µM] | Emax proliferation (% activation) (primary human T-cells [2]) | EC50 (primary human T-cells [2]; Homo sapiens, T-cell, 120 h) [µM]
> 10 | N[C@H]1C[S+]([O-])c2ccc(-c3nnc(CC(F)(F)F)o3)cc2N(Cc2ccc(OC(F)(F)F)cc2)C1=O (single isomer, unassigned; epimer a) [Example 427] | 26 | > 10 |  | 
7.17 | N[C@H]1C[S+]([O-])c2cc(F)c(-c3noc(N4CCOC5(CC5)C4)n3)cc2N(Cc2ccc(Cl)cc2)C1=O (single isomer, unassigned; epimer b) [Example 210] |  | 1.55 |  | 
1.3 | COC(F)(c1nc(-c2cc3c(cc2F)[S+]([O-])C[C@H](N)C(=O)N3Cc2ccc(Cl)cc2)no1)C(F)(F)F (single isomer, unassigned; epimer b) [Example 339] |  | 0.421 | 141 | 
> 10 | CC(C)(C)c1nc(-c2cc3c(cc2F)[S+]([O-])C[C@H](N)C(=O)N3Cc2ccc(Cl)cc2)no1 (single isomer, unassigned; epimer b) [Example 341] |  | 3.01 | 105 | 
4.83 | CN1CC(c2nc(-c3cc4c(cc3F)[S+]([O-])C[C@H](N)C(=O)N4Cc3ccc(Cl)cc3)no2)CC(F)(F)C1 (single isomer, unassigned; epimer b) [Example 343] |  | 2.62 | 97 | 
1.29 | COC(F)(c1nnc(-c2ccc3c(c2)N(Cc2ccc(OC(F)(F)F)cc2)C(=O)[C@@H](N)C[S+]3[O-])o1)C(F)(F)F (single isomer, unassigned; epimer b) [Example 426] |  | 1.4 | 109 | 
1.58 | N[C@H]1C[S+]([O-])c2ccc(-c3nnc(CC(F)(F)F)o3)cc2N(Cc2ccc(OC(F)(F)F)cc2)C1=O (single isomer, unassigned; epimer b) [Example 428] |  | 3.28 | 38 | 
0.991 | CC(C)(C)c1cn(-c2cc3c(cc2F)S(=O)(=O)C[C@H](N)C(=O)N3Cc2ccc(Cl)cc2)nn1 [Example 5, (3R)-3-amino-7-(4-tert-butyltriazol-1-yl)-5-[(4-chlorophenyl)methyl]-8-fluoro-1,1-dioxo-2,3-dihydro-1λ^6,5-benzothiazepin-4-one] | 154 |  |  | 2.14
> 20 | CCn1cc(-c2cc3c(cc2F)S(=O)(=O)C[C@H](N)C(=O)N3Cc2ccc(Cl)cc2)nn1 [Example 6, (3R)-3-amino-5-[(4-chlorophenyl)methyl]-7-(1-ethyltriazol-4-yl)-8-fluoro-1,1-dioxo-2,3-dihydro-1λ^6,5-benzothiazepin-4-one] | 39 |  |  | > 20
1.32 | CN1CC[C@H](n2nnc(-c3cc4c(cc3F)S(=O)(=O)C[C@H](N)C(=O)N4Cc3ccc(Cl)cc3)n2)C1 [Example 9, (3R)-3-amino-5-[(4-chlorophenyl)methyl]-8-fluoro-1,1-dioxo-7-[2-[(3S)-1-methylpyrrolidin-3-yl]tetrazol-5-yl]-2,3-dihydro-1λ^6,5-benzothiazepin-4-one] | 63 |  |  | 4.66
3.1 | CN1CC[C@@H](n2nnc(-c3cc4c(cc3F)S(=O)(=O)C[C@H](N)C(=O)N4Cc3ccc(Cl)cc3)n2)C1 [Example 10, (3R)-3-amino-5-[(4-chlorophenyl)methyl]-8-fluoro-1,1-dioxo-7-[2-[(3R)-1-methylpyrrolidin-3-yl]tetrazol-5-yl]-2,3-dihydro-1λ^6,5-benzothiazepin-4-one] | 78 |  |  | 4.04
1.3 | CC(=O)N1CCC(n2nnc(-c3cc4c(cc3F)S(=O)(=O)C[C@H](N)C(=O)N4Cc3ccc(Cl)cc3)n2)CC1 [Example 11, (3R)-7-[2-(1-acetyl-4-piperidyl)tetrazol-5-yl]-3-amino-5-[(4-chlorophenyl)methyl]-8-fluoro-1,1-dioxo-2,3-dihydro-1λ^6,5-benzothiazepin-4-one] | 107 |  |  | 1.36
> 10 | CC(=O)N1CCCC(n2nnc(-c3cc4c(cc3F)S(=O)(=O)C[C@H](N)C(=O)N4Cc3ccc(Cl)cc3)n2)C1 (stereo partly drawn) [Example 13, (3R)-7-[2-(1-acetyl-3-piperidyl)tetrazol-5-yl]-3-amino-5-[(4-chlorophenyl)methyl]-8-fluoro-1,1-dioxo-2,3-dihydro-1λ^6,5-benzothiazepin-4-one] | 87 |  |  | 3.51
0.917 | NC(Cn1nnc(-c2cc3c(cc2F)S(=O)(=O)C[C@H](N)C(=O)N3Cc2ccc(Cl)cc2)n1)C(F)(F)F (stereo partly drawn) [Example 14, (3R)-3-amino-7-[2-(2-amino-3,3,3-trifluoro-propyl)tetrazol-5-yl]-5-[(4-chlorophenyl)methyl]-8-fluoro-1,1-dioxo-2,3-dihydro-1λ^6,5-benzothiazepin-4-one] | 131 |  |  | 0.81
0.832 | COC(=O)N1CCC(n2nnc(-c3cc4c(cc3F)S(=O)(=O)C[C@H](N)C(=O)N4Cc3ccc(Cl)cc3)n2)C1 (stereo partly drawn) [Example 15, methyl 3-[5-[(3R)-3-amino-5-[(4-chlorophenyl)methyl]-8-fluoro-1,1,4-trioxo-2,3-dihydro-1λ^6,5-benzothiazepin-7-yl]tetrazol-2-yl]pyrrolidine-1-carboxylate] | 109 |  |  | 2.44
2.83 | Cn1nnc(-c2cc3c(cc2F)S(=O)(=O)C[C@H](N)C(=O)N3Cc2ccc(Cl)cc2)n1 [Example 16, (3R)-3-amino-5-[(4-chlorophenyl)methyl]-8-fluoro-7-(2-methyltetrazol-5-yl)-1,1-dioxo-2,3-dihydro-1λ^6,5-benzothiazepin-4-one] | 65 |  |  | 3.66
0.262 | CS(=O)(=O)N1CCC(n2nnc(-c3cc4c(cc3F)S(=O)(=O)C[C@H](N)C(=O)N4Cc3ccc(Cl)cc3)n2)CC1 [Example 17, (3R)-3-amino-5-[(4-chlorophenyl)methyl]-8-fluoro-7-[2-(1-methylsulfonyl-4-piperidyl)tetrazol-5-yl]-1,1-dioxo-2,3-dihydro-1λ^6,5-benzothiazepin-4-one] | 239 |  |  | 0.167
0.91 | CS(=O)(=O)N1CCCC(n2nnc(-c3cc4c(cc3F)S(=O)(=O)C[C@H](N)C(=O)N4Cc3ccc(Cl)cc3)n2)C1 (stereo partly drawn) [Example 18, (3R)-3-amino-5-[(4-chlorophenyl)methyl]-8-fluoro-7-[2-(1-methylsulfonyl-3-piperidyl)tetrazol-5-yl]-1,1-dioxo-2,3-dihydro-1λ^6,5-benzothiazepin-4-one] | 136 |  |  | 0.295
1.17 | CS(=O)(=O)N1CCC(n2nnc(-c3cc4c(cc3F)S(=O)(=O)C[C@H](N)C(=O)N4Cc3ccc(Cl)cc3)n2)C1 (stereo partly drawn) [Example 19, (3R)-3-amino-5-[(4-chlorophenyl)methyl]-8-fluoro-7-[2-(1-methylsulfonylpyrrolidin-3-yl)tetrazol-5-yl]-1,1-dioxo-2,3-dihydro-1λ^6,5-benzothiazepin-4-one] | 58 |  |  | 1.29
0.846 | CN1CCCC(n2nnc(-c3cc4c(cc3F)S(=O)(=O)C[C@H](N)C(=O)N4Cc3ccc(Cl)cc3)n2)C1 (stereo partly drawn) [Example 20, (3R)-3-amino-5-[(4-chlorophenyl)methyl]-8-fluoro-7-[2-(1-methyl-3-piperidyl)tetrazol-5-yl]-1,1-dioxo-2,3-dihydro-1λ^6,5-benzothiazepin-4-one] | 111 |  |  | 0.567
0.665 | CN1CC(n2nnc(-c3cc4c(cc3F)S(=O)(=O)C[C@H](N)C(=O)N4Cc3ccc(Cl)cc3)n2)CC(F)(F)C1 (stereo partly drawn) [Example 21, (3R)-3-amino-5-[(4-chlorophenyl)methyl]-7-[2-(5,5-difluoro-1-methyl-3-piperidyl)tetrazol-5-yl]-8-fluoro-1,1-dioxo-2,3-dihydro-1λ^6,5-benzothiazepin-4-one] | 127 |  |  | 0.293
> 10 | CN1CC(n2nnc(-c3cc4c(cc3F)S(=O)(=O)C[C@H](N)C(=O)N4Cc3ccccc3)n2)CC(F)(F)C1 (stereo partly drawn) [Example 22, (3R)-3-amino-5-benzyl-7-[2-(5,5-difluoro-1-methyl-3-piperidyl)tetrazol-5-yl]-8-fluoro-1,1-dioxo-2,3-dihydro-1λ^6,5-benzothiazepin-4-one] | 74 |  |  | > 10
3.79 | CS(=O)(=O)N1CC(n2nnc(-c3cc4c(cc3F)S(=O)(=O)C[C@H](N)C(=O)N4Cc3ccc(Cl)cc3)n2)CC(F)(F)C1 (stereo partly drawn) [Example 23, (3R)-3-amino-5-[(4-chlorophenyl)methyl]-7-[2-(5,5-difluoro-1-methylsulfonyl-3-piperidyl)tetrazol-5-yl]-8-fluoro-1,1-dioxo-2,3-dihydro-1λ^6,5-benzothiazepin-4-one] | 161 |  |  | 0.588
6.62 | CC(=O)N1CC(n2nnc(-c3cc4c(cc3F)S(=O)(=O)C[C@H](N)C(=O)N4Cc3ccc(Cl)cc3)n2)CC(F)(F)C1 (stereo partly drawn) [Example 24, (3R)-7-[2-(1-acetyl-5,5-difluoro-3-piperidyl)tetrazol-5-yl]-3-amino-5-[(4-chlorophenyl)methyl]-8-fluoro-1,1-dioxo-2,3-dihydro-1λ^6,5-benzothiazepin-4-one] | 95 |  |  | 2.02
